Paper PMC6615261, “Repurposing Azithromycin and Rifampicin Against Gram-Negative Pathogens by Combination With Peptidomimetics” (Frontiers in Cellular and Infection Microbiology, 2019)
Read-outs that look alike come from different tables or passages of the source.

Legend:
[1] = MTS/PMS cell viability assay; format: cell-based, mouse; conditions: mouse, NIH 3T3 fibroblasts, 1 h exposure, read-out: Cytotoxicity NIH 3T3 EC50 ± SD
Method: (§1) NIH 3T3 and HepG2 cells (both from ATCC, Manassas, VA, USA) were cultured in flat-bottomed 96-well MicroWell™ plates (NUNC, Roskilde, Denmark) at seeding densities of ~23,000 and ~22,000 cells/well, respectively, and then cultured for 22–24 h under standard culturing conditions (37°C, 5% CO2, humidified air) to reach 80–90% confluence. NIH 3T3 were cultured in Dulbecco's modified Eagle's medium (DMEM) supplemented with 10% (v/v) newborn-calf serum (NCS) (Gibco, Paisly, UK), while HepG2 were cultured in Eagle's minimum essential medium (EMEM) supplemented with 10% (v/v) fetal bovine serum (FBS, Gibco, Paisly, UK), sodium pyruvate (1 mM), and non-essential amino acids (1%, v/v). Both culturing media were further supplemented with penicillin (100 U/mL), streptomycin (100 μg/mL), and L-glutamine (2 mM).
(§2) Effect on cell viability was determined in NIH 3T3 fibroblasts and HepG2 hepatocytes by using the MTS/PMS assay measuring metabolic activity. Briefly, the adhered cells were washed with 37°C Hanks' balanced salt solution (HBSS from Sigma-Aldrich, St. Louis, MO, USA), containing 10 mM HEPES (AppliChem, Darmstadt, Germany), and adjusted to pH 7.4, and were then exposed for 1 h to 100 μL of test compound(s) dissolved in the appropriate culturing medium without serum for each cell line. After exposure the cells were washed with HBSS containing 10 mM HEPES (pH 7.4) and 100 μL of an MTS/PMS solution, consisting of 240 μg/mL MTS (Promega, Madison, WI, USA) and 2.4 μg/mL PMS (SigmaAldrich, Buchs, Switzerland) in HBSS, was added to the cells, which then were incubated for 1 h at 37°C with horizontal shaking under light protection. Absorbance was measured at 492 nm by using a POLARstar OPTIMA plate reader (BMG Labtech, Offenburg, Germany). The relative viability was calculated according to Equation (1) with absorbance values obtained after incubation of cells with test compound; incubation with SDS (0.2%, w/v in medium) defined 100% cell death (Abspos), while the absorbance of cells incubated with medium defined 0% cell death (Absneg).
(§3) (1) Relative viability(%)=(Abssample-Abspos)/(Absneg-Abspos)×100%
(§4) EC50 values were calculated by using GraphPad Prism 7 (GraphPad Software, La Jolla, CA, USA) via fitting of the relative cell viability to the concentration of the test compound by using Equation (2):
(§5) (2) Relative viability(%)= Top-Bottom/1+10^(LogIC50-Log[peptidomimetic]) ×Hill slope
(§6) With top and bottom representing the mean highest and lowest observed values, respectively. The Hill slope represents a factor for the steepness of the linear part of the curve. In order to prevent erroneous calculation, the top and bottom values were constrained to 100 and 0%, respectively. Data were collected from technical triplicates. The selectivity index was calculated as the average effect on cell viability (EC50 values for HepG2 and NIH 3T3 cells) divided by the MIC.

[2] = system: pro-inflammatory effect of LPS; parameters: method as in Skovbakke et al., 2015; conditions: at 1 μM; ref Skovbakke et al., 2015; cited from earlier work
P. aeruginosa ATCC 27853 [3] = experiment: MIC by broth microdilution; format: cell-based, Pseudomonas aeruginosa
Method: (§7) Minimal inhibitory concentrations (MICs) of peptidomimetics, antibiotics and their combinations were determined by broth microdilution according to the Clinical Laboratory Standards Institute performance standards (Clinical and Laboratory Standards Institute, [2013]). […] Since rifampicin and azithromycin mainly are used to treat infections with Gram-positive pathogens only CLSI clinical breakpoints were available for such bacteria. […] Potentiation of additional antibiotics by peptidomimetics was determined by using commercial 96-well plates containing varied concentrations of standard antibiotics (COMPAN1F; Trek Diagnostic Systems Inc.). The peptidomimetics were added immediately prior to inoculation with pathogen, and then MICs were determined as above. The MICs of peptidomimetic/antibiotic combinations were determined according to the method above, and the concentration ratios were selected based upon checkerboard results with 2:1 and 1:4 ratio of peptidomimetic with rifampicin or azithromycin, respectively. Minimal bactericidal concentrations (MBCs) were determined by using growth-curve assay plates. MIC plates were prepared as above, and then the plates were incubated at 37°C with continuous shaking. Growth was recorded at 10 min intervals as optical density (OD) at 600 nm during 24 h. At 24 h, for wells without growth, a sample was diluted 10-fold in sterile saline (0.9% sodium chloride) and plated onto MHA, following CLSI guidelines (Clinical and Laboratory Standards Institute, [1999]).

MDR E. coli ST131 = experiment: Screening of peptidomimetic-antibiotic combinations (growth / growth inhibition); format: cell-based, Escherichia coli; parameters: key to Growth in combination with RIF / Growth in combination with AZM: Growth (+); growth inhibition (–)
K. pneumoniae ST258 [4] = experiment: MIC by broth microdilution; format: cell-based, Klebsiella pneumoniae
Method: as §7

[5] = MTS/PMS cell viability assay; format: cell-based; conditions: human, HepG2 hepatocytes, 1 h exposure, read-out: Cytotoxicity HepG2 EC50 ± SD
Method: as §1, §2, §3, §4, §5, §6

E. coli ST131 [6] = system: E. coli ST131
Method: (§8) The potential synergistic effects in peptidomimetic-antibiotic combinations were assessed by using a two-dimensional checkerboard assay (Garcia, [2010]). Briefly, twofold dilutions of peptide and antibiotic were prepared in MBH II media along the X- and Y-axis, respectively, in 96-well plates. The inoculum was added to the plates, and subsequently these were incubated for 18–20 h. All steps for inoculum preparation and broth microdilution were in accordance with the CLSI guidelines (Clinical and Laboratory Standards Institute, [2013]). The fractional inhibitory concentration index (FICI) was calculated as [MICA(A+B)/MICA(alone)] + [MICB(A+B)/MICB(alone)], where MICA(A+B) represents the MIC of antibiotic (A) in combination with peptidomimetic (B), while MICB(A+B) represents the MIC of peptidomimetic (B) in combination with antibiotic (A). MICA(alone) and MICB(alone) represent the MIC of each compound individually. FICI values of ≤0.5 were interpreted as synergy.

P. aeruginosa ATCC 27853 [7] = system: P. aeruginosa ATCC 27853
Method: as §8

K. pneumoniae ST258 [8] = system: K. pneumoniae ST258
Method: as §8

E. coli ST131 [9] = experiment: MIC by broth microdilution; format: cell-based, Escherichia coli
Method: as §7

K. pneumoniae ST258 [10] = experiment: Screening of peptidomimetic-antibiotic combinations (growth / growth inhibition); format: cell-based, Klebsiella pneumoniae; parameters: key to Growth in combination with RIF / Growth in combination with AZM: Growth (+); growth inhibition (–)
[11] = average of EC50 (HepG2, NIH 3T3) divided by MIC
[12] = peptidomimetic 0.5 μM + azithromycin 1 μg/mL
[13] = peptidomimetic 0.5 μM + rifampicin 0.5 μg/mL
[14] = MIC of azithromycin combined with the labelled peptidomimetic
[15] = MIC of rifampicin combined with the labelled peptidomimetic

- MIC P. aeruginosa ATCC 27853 (P. aeruginosa ATCC 27853 [3]; peptidomimetic alone): 16 µM
- MIC K. pneumoniae ST258 (K. pneumoniae ST258 [4]; peptidomimetic alone): 64 µM
- Antibiotic MIC in combination (AZM) (E. coli ST131 [6]; [14]): 1 µg/mL
- Antibiotic MIC in combination (RIF) (E. coli ST131 [6]; [15]): 0.25 µg/mL
- Peptidomimetic MIC alone (E. coli ST131 [6]; checkerboard): 4 µM
- Peptidomimetic MIC in combination (E. coli ST131 [6]; combined with AZM): 0.25 µM
- Peptidomimetic MIC in combination (E. coli ST131 [6]; combined with RIF): 0.25 µM
- Antibiotic MIC in combination (AZM) (P. aeruginosa ATCC 27853 [7]; P. aeruginosa ATCC 27853, MIC of azithromycin combined with the labelled peptidomimetic): 1 µg/mL
- Antibiotic MIC in combination (RIF) (P. aeruginosa ATCC 27853 [7]; P. aeruginosa ATCC 27853, MIC of rifampicin combined with the labelled peptidomimetic): 1 µg/mL
- Peptidomimetic MIC alone (P. aeruginosa ATCC 27853 [7]; P. aeruginosa ATCC 27853, checkerboard): 16 µM
- Peptidomimetic MIC in combination (P. aeruginosa ATCC 27853 [7]; P. aeruginosa ATCC 27853, combined with AZM): 4 µM
- Peptidomimetic MIC in combination (P. aeruginosa ATCC 27853 [7]; P. aeruginosa ATCC 27853, combined with RIF): 4 µM
- Reduction of the MIC of azithromycin (P. aeruginosa ATCC 27853 [7]; P. aeruginosa, sub-MIC concentrations of peptidomimetic): 32- to 512 fold
- Antibiotic MIC in combination (AZM) (K. pneumoniae ST258 [8]; [14]): 4 µg/mL
- Antibiotic MIC in combination (RIF) (K. pneumoniae ST258 [8]; [15]): 1 µg/mL
- Peptidomimetic MIC alone (K. pneumoniae ST258 [8]; checkerboard): 64 µM
- MIC E. coli ST131 (E. coli ST131 [9]; peptidomimetic alone): 4 µM
Compound: CC(=O)N[C@@H](CCCCN)C(=O)N(CCC(=O)N[C@@H](CCCCN)C(=O)N(CCC(=O)N[C@@H](CCCCN)C(=O)N(CCC(=O)N[C@@H](CCCCN)C(=O)N(CCC(=O)N[C@@H](CCCCN)C(=O)N(CCC(=O)N[C@@H](CCCCN)C(=O)N(CCC(N)=O)Cc1ccccc1)Cc1ccccc1)Cc1ccccc1)Cc1ccccc1)Cc1ccccc1)Cc1ccccc1 [Peptidomimetic 14, Ac-(Lys-βNPhe)6-NH2]
- EC50 at 1 h [1]: 323 µM
- Block of the pro-inflammatory effect of LPS [2]: block the pro-inflammatory effect of LPS
- Selectivity Index (SI) P. aeruginosa ATCC 27853 (P. aeruginosa ATCC 27853 [3]; [11]): (17)
- Growth in combination with AZM (MDR E. coli ST131; [12]): –
- Growth in combination with RIF (MDR E. coli ST131; [13]): –
- Selectivity Index (SI) K. pneumoniae ST258 (K. pneumoniae ST258 [4]; [11]): (4)
- EC50 at 1 h [5]: 234 µM
- Selectivity Index (SI) E. coli ST131 (E. coli ST131 [9]; [11]): (70)
- Growth in combination with AZM (K. pneumoniae ST258 [10]; [12]): +
- Growth in combination with RIF (K. pneumoniae ST258 [10]; [13]): +
